# Assay: physchem
# [1] = 66% dmf, first titratable group
# [2] = 66% dmf, second titratable group
pKa [1],pKa [2],"pKa (water, first titratable group)","pKa (water, second titratable group)",SMILES
~3.4,11.7,4.05,9.2,O=C(Cc1ccccn1)NO [N-hydroxy-2-pyridineacetamide]
3.68,11.5,4.6,9.09,O=C(Cc1cccnc1)NO [N-hydroxy 3-pyridineacetamide]
–,–,3.55,7.9,CN(O)C(=O)c1ccncc1 [N-hydroxy-N-methyl 4-pyridinecarboxamide]
